# Assay results taken from patent US4650801A, “Anti-cancer compositions for delivering 5-fluorouracil” (Taiho Pharmaceutical Company, Ltd., priority 1978, dated 1987).
# Read-outs that look alike come from different tables or passages of the source.
# What was measured:
# in vivo = conditions: mouse, in vivo, po
# Method: (§1) The anti-cancer compositions of this invention are tested in mice by the following methods to determine acute toxicity, anti-cancer effect and therapeutic index
# (§2) Male mice of ICR strain weighing 22±1 g are used, 5 mice in each group. A 5-fluorouracil (a) and uracil derivative (b) in the proportions listed in Tables 1-16 are suspended in a 5% solution of gum arabic to prepare a suspension, which is forcibly orally administered to each mouse through a tube at a dose of 1 ml/100 g. Over the following period of three weeks the mice are checked every day for poisoning, body weight and mortality. The LD50 is determined according to the up-and-down method 3 weeks after the administration.
# male mice of ICR strain = experiment: in vivo; conditions: 30240 min
# Method: as §1, §2
# sarcoma 180 = format: in vivo
# Method: as §1, §2
# Tissues of sarcoma 180, 2×10^6, are subcutaneously transplanted in the back of male mice of ICR strain (6 mice in each group). A 5-fluorouracil (a) and uracil derivative (b) in the proportions listed in Tables 1-16 are suspended in a 5% solution of gum arabic to prepare a suspension. Twenty-four hours after the transplantation and during the following seven consecutive days the suspension is orally given to the animal once every day.
# The LD50 and ED50 values obtained above are used to determine the therapeutic index (LD50 /ED50).
# [1] = (b) = 1(2-Tetrahydrofuryl)uracil, (b)/(a) mol ratio 1
# [2] = (b) = 1(2-Tetrahydrofuryl)uracil, (b)/(a) mol ratio 2
# [3] = (b) = 1(2-Tetrahydrofuryl)uracil, (b)/(a) mol ratio 5
# [4] = (b) = 1Acetyluracil, (b)/(a) mol ratio 1
# [5] = (b) = 1Acetyluracil, (b)/(a) mol ratio 2
# [6] = (b) = 1Acetyluracil, (b)/(a) mol ratio 5
# [7] = (b) = 1Cyclohexylcarbamoyluracil, (b)/(a) mol ratio 0.5
# [8] = (b) = 1Cyclohexylcarbamoyluracil, (b)/(a) mol ratio 5
# [9] = (b) = 1n-Hexylcarbamoyluracil, (b)/(a) mol ratio 1
# [10] = (b) = 1n-Hexylcarbamoyluracil, (b)/(a) mol ratio 2
# [11] = (b) = 1n-Hexylcarbamoyluracil, (b)/(a) mol ratio 10
# [12] = (b) = 2'-Deoxycytidine, (b)/(a) mol ratio 1
# [13] = (b) = 2'-Deoxycytidine, (b)/(a) mol ratio 2
# [14] = (b) = 2'-Deoxyuridine, (b)/(a) mol ratio 1
# [15] = (b) = 2'-Deoxyuridine, (b)/(a) mol ratio 2
# [16] = (b) = 2'-Deoxyuridine, (b)/(a) mol ratio 20
# [17] = (b) = 3Benzoyluracil, (b)/(a) mol ratio 1
# [18] = (b) = 3Benzoyluracil, (b)/(a) mol ratio 2
# [19] = (b) = 3Benzoyluracil, (b)/(a) mol ratio 10
# [20] = (b) = 5Bromo-2'-deoxyuridine, (b)/(a) mol ratio 0.5
# [21] = (b) = 5Bromo-2'-deoxyuridine, (b)/(a) mol ratio 2
# [22] = (b) = 5Bromo-2'-deoxyuridine, (b)/(a) mol ratio 10
# [23] = (b) = 5Bromouracil, (b)/(a) mol ratio 0.5
# [24] = (b) = 5Bromouracil, (b)/(a) mol ratio 2
# [25] = (b) = 5Bromouracil, (b)/(a) mol ratio 10
# [26] = (b) = 5Iodouracil, (b)/(a) mol ratio 1
# [27] = (b) = 5Iodouracil, (b)/(a) mol ratio 5
# [28] = (b) = Cytidine, (b)/(a) mol ratio 2
# [29] = (b) = Cytidine, (b)/(a) mol ratio 10
# [30] = (b) = Cytosine, (b)/(a) mol ratio 10
# [31] = (b) = Orotic acid, (b)/(a) mol ratio 2
# [32] = (b) = Orotic acid, (b)/(a) mol ratio 20
# [33] = (b) = Thymidine, (b)/(a) mol ratio 0.5
# [34] = (b) = Thymidine, (b)/(a) mol ratio 2
# [35] = (b) = Thymidine, (b)/(a) mol ratio 10
# [36] = (b) = Thymine, (b)/(a) mol ratio 0.5
# [37] = (b) = Thymine, (b)/(a) mol ratio 2
# [38] = (b) = Thymine, (b)/(a) mol ratio 10
# [39] = (b) = Uridine, (b)/(a) mol ratio 1
# [40] = (b) = Uridine, (b)/(a) mol ratio 2
# [41] = (b) = Uridine, (b)/(a) mol ratio 20
# [42] = (b) = 1Cyclohexylcarbamoyluracil, (b)/(a) mol ratio 2
# [43] = (b) = 2'-Deoxycytidine, (b)/(a) mol ratio 10
# [44] = (b) = 5Iodouracil, (b)/(a) mol ratio 2
# [45] = (b) = Orotic acid, (b)/(a) mol ratio 1
smiles,measurement,setting,value
"O=c1[nH]cc(F)c(=O)n1C1CCCO1 (stereo not shown) [Compound 6, 3-(2-Tetrahydrofuryl)-5-fluorouracil]",LD50 at 504 h,in vivo; [1],874 mg/kg
same,LD50 at 504 h,in vivo; [2],650 mg/kg
same,LD50 at 504 h,in vivo; [3],535 mg/kg
same,LD50 at 504 h,in vivo; [4],702 mg/kg
same,LD50 at 504 h,in vivo; [5],468 mg/kg
same,LD50 at 504 h,in vivo; [6],246 mg/kg
same,LD50 at 504 h,in vivo; [7],833 mg/kg
same,LD50 at 504 h,in vivo; [8],576 mg/kg
same,LD50 at 504 h,in vivo; [9],928 mg/kg
same,LD50 at 504 h,in vivo; [10],844 mg/kg
same,LD50 at 504 h,in vivo; [11],469 mg/kg
same,LD50 at 504 h,in vivo; [12],928 mg/kg
same,LD50 at 504 h,in vivo; [13],843 mg/kg
same,LD50 at 504 h,in vivo; [14],845 mg/kg
same,LD50 at 504 h,in vivo; [15],790 mg/kg
same,LD50 at 504 h,in vivo; [16],525 mg/kg
same,LD50 at 504 h,in vivo; [17],768 mg/kg
same,LD50 at 504 h,in vivo; [18],663 mg/kg
same,LD50 at 504 h,in vivo; [19],448 mg/kg
same,LD50 at 504 h,in vivo; [20],640 mg/kg
same,LD50 at 504 h,in vivo; [21],478 mg/kg
same,LD50 at 504 h,in vivo; [22],308 mg/kg
same,LD50 at 504 h,in vivo; [23],745 mg/kg
same,LD50 at 504 h,in vivo; [24],575 mg/kg
same,LD50 at 504 h,in vivo; [25],412 mg/kg
same,LD50 at 504 h,in vivo; [26],467 mg/kg
same,LD50 at 504 h,in vivo; [27],194 mg/kg
same,LD50 at 504 h,in vivo; [28],928 mg/kg
same,LD50 at 504 h,in vivo; [29],773 mg/kg
same,LD50 at 504 h,in vivo; [30],639 mg/kg
same,LD50 at 504 h,in vivo; [31],969 mg/kg
same,LD50 at 504 h,in vivo; [32],806 mg/kg
same,LD50 at 504 h,in vivo; [33],963 mg/kg
same,LD50 at 504 h,in vivo; [34],886 mg/kg
same,LD50 at 504 h,in vivo; [35],639 mg/kg
same,LD50 at 504 h,in vivo; [36],830 mg/kg
same,LD50 at 504 h,in vivo; [37],537 mg/kg
same,LD50 at 504 h,in vivo; [38],324 mg/kg
same,LD50 at 504 h,in vivo; [39],945 mg/kg
same,LD50 at 504 h,in vivo; [40],815 mg/kg
same,LD50 at 504 h,in vivo; [41],597 mg/kg
same,LD50,male mice of ICR strain; [42],694 mg/kg
same,LD50,male mice of ICR strain; [43],680 mg/kg
same,LD50,male mice of ICR strain; [44],380 mg/kg
same,LD50,male mice of ICR strain; [45],1020 mg/kg
same,Therapeutic Index (LD50/ED50),sarcoma 180; [1],17.1
same,Therapeutic Index (LD50/ED50),sarcoma 180; [2],22.4
same,Therapeutic Index (LD50/ED50),sarcoma 180; [3],29.7
same,Therapeutic Index (LD50/ED50),sarcoma 180; [4],21.9
same,Therapeutic Index (LD50/ED50),sarcoma 180; [5],18.0
same,Therapeutic Index (LD50/ED50),sarcoma 180; [6],15.4
same,Therapeutic Index (LD50/ED50),sarcoma 180; [7],15.1
same,Therapeutic Index (LD50/ED50),sarcoma 180; [42],15.1
same,Therapeutic Index (LD50/ED50),sarcoma 180; [8],17.5
same,Therapeutic Index (LD50/ED50),sarcoma 180; [9],15.7
same,Therapeutic Index (LD50/ED50),sarcoma 180; [10],20.6
same,Therapeutic Index (LD50/ED50),sarcoma 180; [11],16.8
same,Therapeutic Index (LD50/ED50),sarcoma 180; [12],15.7
same,Therapeutic Index (LD50/ED50),sarcoma 180; [13],17.9
same,Therapeutic Index (LD50/ED50),sarcoma 180; [43],20.0
same,Therapeutic Index (LD50/ED50),sarcoma 180; [14],15.9
same,Therapeutic Index (LD50/ED50),sarcoma 180; [15],18.8
same,Therapeutic Index (LD50/ED50),sarcoma 180; [16],20.2
same,Therapeutic Index (LD50/ED50),sarcoma 180; [17],18.3
same,Therapeutic Index (LD50/ED50),sarcoma 180; [18],20.7
same,Therapeutic Index (LD50/ED50),sarcoma 180; [19],17.9
same,Therapeutic Index (LD50/ED50),sarcoma 180; [20],13.1
same,Therapeutic Index (LD50/ED50),sarcoma 180; [21],15.9
same,Therapeutic Index (LD50/ED50),sarcoma 180; [22],14.0
same,Therapeutic Index (LD50/ED50),sarcoma 180; [23],19.1
same,Therapeutic Index (LD50/ED50),sarcoma 180; [24],22.1
same,Therapeutic Index (LD50/ED50),sarcoma 180; [25],19.6
same,Therapeutic Index (LD50/ED50),sarcoma 180; [26],18.0
same,Therapeutic Index (LD50/ED50),sarcoma 180; [44],22.4
same,Therapeutic Index (LD50/ED50),sarcoma 180; [27],17.6
same,Therapeutic Index (LD50/ED50),"sarcoma 180; (b) = Cytidine, (b)/(a) mol ratio 1",17.6
same,Therapeutic Index (LD50/ED50),sarcoma 180; [28],23.8
same,Therapeutic Index (LD50/ED50),sarcoma 180; [29],22.7
same,Therapeutic Index (LD50/ED50),"sarcoma 180; (b) = Cytosine, (b)/(a) mol ratio 1",18.2
same,Therapeutic Index (LD50/ED50),"sarcoma 180; (b) = Cytosine, (b)/(a) mol ratio 2",24.9
same,Therapeutic Index (LD50/ED50),sarcoma 180; [30],26.6
same,Therapeutic Index (LD50/ED50),sarcoma 180; [45],14.8
same,Therapeutic Index (LD50/ED50),sarcoma 180; [31],15.9
same,Therapeutic Index (LD50/ED50),sarcoma 180; [32],17.5
same,Therapeutic Index (LD50/ED50),sarcoma 180; [33],14.4
same,Therapeutic Index (LD50/ED50),sarcoma 180; [34],14.1
same,Therapeutic Index (LD50/ED50),sarcoma 180; [35],10.7
same,Therapeutic Index (LD50/ED50),sarcoma 180; [36],-17.3
same,Therapeutic Index (LD50/ED50),sarcoma 180; [37],19.9
same,Therapeutic Index (LD50/ED50),sarcoma 180; [38],23.1
same,Therapeutic Index (LD50/ED50),sarcoma 180; [39],22.0
same,Therapeutic Index (LD50/ED50),sarcoma 180; [40],26.3
same,Therapeutic Index (LD50/ED50),sarcoma 180; [41],20.6
same,Therapeutic Index (LD50/ED50),sarcoma 180; (b)/(a) mol ratio 0 (alone),13.1
